Experimental data from article PMC5552691, “Novel giardicidal compounds bearing proton pump inhibitor scaffold proceeding through triosephosphate isomerase inactivation” (Scientific Reports, 2017).

Assays:
[1] = Solubility (remark in the discussion); format: physicochemical
GlTIM = target: T1, GlTIM (Giardia intestinalis, UniProt P36186, C202A); experiment: Quantification of free Cys of derivatized GlTIM (Ellman's reagent); format: biochemical, Giardia lamblia; settings: for Number of free Cys per monomer after treatment: GlTIM 6 mg/mL (214 µM), compound 1 mM, two hours at 37 °C; for Number of free Cys per monomer after treatment and then DTT: derivatized enzyme incubated with 5 mM DTT during 15 minutes
T1 construct: His-tag (N, cleaved yes); TEV protease recognition site (N); made in house; host or cells: Escherichia coli
T1 sequence (P36186 whole entry C202A): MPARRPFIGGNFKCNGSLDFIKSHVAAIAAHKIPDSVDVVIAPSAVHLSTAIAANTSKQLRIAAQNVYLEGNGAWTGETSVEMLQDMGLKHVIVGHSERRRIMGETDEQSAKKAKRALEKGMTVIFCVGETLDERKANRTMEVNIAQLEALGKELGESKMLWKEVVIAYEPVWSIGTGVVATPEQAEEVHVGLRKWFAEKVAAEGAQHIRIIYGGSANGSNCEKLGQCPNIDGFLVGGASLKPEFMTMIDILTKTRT
Description: We evaluated the first option by determining the residual free Cys after derivatization with compounds and afterwards reducing agent treatment. Thus, 6 mg/mL (214 µM) of GlTIM was incubated with or without each one of compounds (1 mM) during two hours at 37 °C. It is important to remark that at the protein concentration used for this aim, a considerable quantity was precipitated. Therefore, the incubation of the samples was arrested by centrifuging and then filtration through a 3 mL Sephadex G-25 column, and the number of free Cys quantified from the soluble protein. […] In contrast, the number of Cys per monomer obtained for omeprazole, BHO2 and BHO3 treatment was respectively 2.02 ± 0.02, 1.9 ± 0.2 and 2.15 ± 015. […] An aliquot of each derivatized enzyme was withdrawn and incubated with 5 mM DTT during 15 minutes; then, the samples were filtered and the free Cys was again quantified. The number of Cys/monomer was 2.2 ± 0.2, 2,1 ± 0.22 and 1.8 ± 0.18 for omeprazole, BHO2 and BHO3, respectively.
To carry out the experiments, the derivatized GlTIM with different molecules was incubated with 2 mM DTT and then filtered through 3 mL Sephadex G-25 column to remove the unreacted compounds. All spectroscopic assays were carried out at protein concentration of 0.2 mg/mL (7 µM). Cysteine quantification was performed spectrophotometrically using de Ellman’s reagent as described before, [36]. Briefly, 200 µg of GlTIM were suspended in TE buffer supplemented with 5% SDS; after an incubation of 10 min at 25 °C, the enzyme was added to a cuvette containing 500 µL of TE buffer supplemented with 5% SDS and 1 mM DTNB. Cysteine quantification was done following the increase of absorbance at 412 nm, using an ε M ^−1 cm ^−1 of 13,600[36].

[2] = target: T2, triosephosphate isomerase of G. lamblia (GlTIM) (Giardia intestinalis, UniProt P36186, C202A); experiment: Inactivation assay of recombinant GlTIM (C202A variant); format: biochemical; settings: for kinact/KI: pH 7.4, read-out: Second-order rate constant of inactivation; for Inactivation of GlTIM (in words): 2 hours at 37 °C
T2 construct: His-tag (N, cleaved yes); TEV protease recognition site (N); made in house; host or cells: Escherichia coli
T2 sequence (P36186 whole entry C202A): as above
Description: We evaluated the effect of compounds incubating the enzyme with each one of them for 2 hours at 37 °C and the IC50 values were then calculated from the residual activity data.
GlTIM (200 µg/mL) was incubated with increasing concentrations of compounds. After 2 hours of incubation at 37 °C, the reactions were stopped by dilution and the remaining activity was determined as described in the material and methods section.
(§1) For all assays we used mutant GlTIM C202A in order to work with the dimeric form of enzyme; this mutant was referred in the paper as GlTIM and was prepared as described before. The recombinant GlTIM containing a His-tag in its NH-terminal together with a recognition region for tobacco […] virus protease, was expressed in Escherichia coli. The GlTIM purification was performed by using IMAC method; after His-tag was removed, the enzyme was stored at 4 °C in a buffer containing 100 mM triethanolamine, 10 mM EDTA, pH 7.4 (TE buffer). […] Mutant of GlTIM C222A and human TIM (HsTIM) were prepared as described before, [33]. Protein content of GlTIM and HsTIM was calculated by using a ε M ^−1cm^−1 of 26,600 and 32,595, respectively. For all assays, the enzymes were freshly prepared with no more of two weeks of storage.
TIM activity was determined in a Cary50 spectrophotometer (Varian) at 25 °C using coupling assay following the conversion of D-glyceraldehyde 3-phosphate to dihydroxyacetone phosphate as described before. The reaction mixture contained TE buffer (pH 7.4) supplemented with 0.2 mM NADH, 1 mM GAP, and 0.9 U of alpha-GDH. The reaction started by adding 5 ng/mL of TIM.
(§2) Omeprazole and compounds stock solutions were freshly prepared using 100% DMSO as solvent. […] The reaction was stopped by diluting the enzyme 40,000 times in TE buffer and then, the remaining activity was determined. The second-order rate constants of inactivation were calculated from obtaining the pseudo-first order rate constant (k 1) values at each fixed concentration of compounds by fitting them to an exponential decay. Then, the k 1 values were re-plotted against the employed concentrations of each compound; the second-order rate constant value of inactivation was obtained from the slope of these plots.

[3] = tested on: G. lamblia WB trophozoites; experiment: Susceptibility assay of Giardia trophozoites; format: cell-based, Giardia lamblia; settings: Giardia duodenalis; 48 hours at 37 °C with compound, then 48 hours in compound-free medium; ± standard error
Description: The anti-giardiasic ability of compounds was tested in an in vitro. […] Thus, for BHO2 and BHO3 the values (130 and 122 µM, respectively) were around of the half of that obtained for omeprazole (300 µM).
Figure 6 Anti-giardiasic activity of Compounds in trophozoites. Cultures of trophozoites (100,000 trophozoites/mL) were incubated during 48 hours at 37 °C with increasing concentrations of compounds. Afterward, samples were withdrawn and resuspended in a medium free of compounds. The samples were incubated for other 48 hours/37 °C and thereafter, the viability of trophozoites were quantified. The values represent ± standard deviation from three independent experiments.
We used the G. lamblia WB reference isolate in all experiments. The splitting method used to our susceptibility assays is described below. Cultures with 100,000 trophozoites/mL on TYI-S-33 medium were incubated during 48 hours at 37 °C supplemented with increasing concentrations of compounds ranging from 32.5 to 500 µM. Afterward, samples were chilled in ice for 15 minutes, washed with medium and resuspended in 50 µL of medium free of compounds and antibiotic. Then, trophozoites were diluted in 1 mL of medium free of compounds and antibiotic, incubated for 48 hours at 37 °C and then, the viability of trophozoites was manually quantified by using a Neubauer chamber; the viability percent and IC50 was subsequently calculated.

VERO cells = experiment: Cytotoxicity assay (MTT) in VERO cells; format: cell-based; settings: for CC50 mammal cells relative to IC50 for trophozoites: mammal cells: human fibroblasts and VERO cells together
Description: (§3) The cytotoxic effect of these compounds was also evaluated in mammal cell cultures and their CC50 values calculated and depicted in Table 2.
(§4) We used the cell lines VERO (ATCC:CCL-81) and gingival human fibroblasts (kindly provided by Dra. María Dolores Farfán from Facultad de Odontología, Universidad Nacional Autónoma de México). The assay procedure is described below. Cells were maintained in a DMEM medium supplemented with antibiotic-antimycotic (1X), L-glutamine (1X) and 10% fetal bovine serum. Cells were incubated in 25 mL plastic culture flasks (Nunc) at 37 °C and 5% CO2. After the cell cultures grew to confluence, we determined the cell viability by using Trypan Blue method; then, cells were seeded at 4 × 10^4 cells/well in 100 µL culture medium during 24 hours. […] DMSO was maintained constant at 0.2%; a control was performed by incubating cells with this solvent concentration but in absence of compounds. After incubation time, we measured the cell viability by using MTT (3-(4,5-Dimethyl-2-thiazolyl)-2,5-diphenyl-2H-tetrazolium bromide; Roche Diagnostics) method. Briefly, 10 µL MTT (5 mg/mL) was added to cell cultures and incubated at 37 °C during four hours; then, 100 µL of solution containing 10% SDS and 0.01N HCl was added. Thereafter, the formazan products were spectrophotometrically quantified at 570 nm (Labxystem Uniskan, Manchester). The CC50 (median cytotoxicity concentration) and CI95 (95% confidence interval) values from each experiment were determined from the concentration-percentage plots of cell viability obtained by logistic regression. Statistical analysis was performed using the SPPSS software (version 17.0).

[4] = Cytotoxicity assay (MTT) in VERO cells; format: cell-based; settings: African green monkey, VERO cells (ATCC CCL-81); 24 hours, MTT; 95% confidence limits in square brackets
Description: as §3, §4

[5] = Cytotoxicity assay (MTT) in human fibroblasts; format: cell-based; settings: human, gingival human fibroblasts, 95% confidence limits in square brackets
Description: as §3, §4

[6] = target: T2, triosephosphate isomerase of G. lamblia (GlTIM); settings: cited from earlier work
mutant GlTIM C222A = target: T3, mutant GlTIM C222A (Giardia intestinalis, UniProt P36186, C202A/C222A); experiment: Inactivation assay of mutant GlTIM C222A; format: biochemical, Giardia lamblia
T3 construct: made in house
T3 sequence (P36186 whole entry C202A/C222A): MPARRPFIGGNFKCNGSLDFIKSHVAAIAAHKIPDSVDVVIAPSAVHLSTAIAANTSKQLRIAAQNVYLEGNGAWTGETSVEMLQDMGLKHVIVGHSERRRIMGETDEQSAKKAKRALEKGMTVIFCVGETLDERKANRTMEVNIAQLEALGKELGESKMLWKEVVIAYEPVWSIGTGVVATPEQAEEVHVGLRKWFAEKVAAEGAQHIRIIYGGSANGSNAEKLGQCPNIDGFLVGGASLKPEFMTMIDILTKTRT
Description: as §1, with “For all assays, the enzymes were freshly prepared with no more of two weeks of storage.” left out
(§5) TIM activity was determined in a Cary50 spectrophotometer (Varian) at 25 °C using coupling assay following the conversion of D-glyceraldehyde 3-phosphate to dihydroxyacetone phosphate as described before. […]
as §2, with “Then, the k 1 values were re-plotted against the employed concentrations of each compound; the second-order rate constant value of inactivation was obtained from the slope of these plots.” left out

human TIM (HsTIM) = target: T4, human TIM (HsTIM) (Homo sapiens, UniProt P60174); experiment: Inactivation assay of human TIM; format: biochemical
T4 construct: made in house
T4 sequence (P60174 whole entry): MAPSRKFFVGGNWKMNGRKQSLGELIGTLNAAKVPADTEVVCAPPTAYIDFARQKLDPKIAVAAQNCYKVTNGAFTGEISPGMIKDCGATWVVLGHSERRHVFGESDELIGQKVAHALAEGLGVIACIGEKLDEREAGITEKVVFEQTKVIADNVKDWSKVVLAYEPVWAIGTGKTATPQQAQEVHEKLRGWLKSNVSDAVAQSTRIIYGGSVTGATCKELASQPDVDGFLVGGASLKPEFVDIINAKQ
Description: as §1, with “For all assays, the enzymes were freshly prepared with no more of two weeks of storage.” left out
as §5
as §2, with “Then, the k 1 values were re-plotted against the employed concentrations of each compound; the second-order rate constant value of inactivation was obtained from the slope of these plots.” left out

[7] = tested on: gingival human fibroblasts; experiment: Cytotoxicity assay (MTT) in human fibroblasts; format: cell-based; settings: 24 hours, 95% confidence limits in square brackets
Description: as §3, §4

Row | SMILES | Solubility respect to omeprazole [1] | Number of free Cys per monomer after treatment (GlTIM) [Cys/monomer] | IC50 [2] [µM] | Increase of reactivity against GlTIM respect to omeprazole [2] | Reversibility of GlTIM inhibition [2] | kinact/KI [2] [M⁻¹ s⁻¹] | IC50 [3] [µM] | CC50 mammal cells relative to IC50 for trophozoites (VERO cells) | CC50 at 24 h [4] [µM] | melting point [°C] | CC50 at 24 h [5] [µM] | Number of free Cys per monomer after treatment and then DTT (GlTIM) [Cys/monomer] | Inactivation of GlTIM (in words) [2] | Reversibility of GlTIM inhibition, reported before [6] | Second-order rate constant of inactivation, previously reported [6] [M⁻¹ s⁻¹] | Effect on activity of mutant GlTIM C222A (in words) (mutant GlTIM C222A) | Inactivation of HsTIM (in words) (human TIM (HsTIM)) | CC50 VERO cells relative to trophozoites cytotoxicity (VERO cells) [fold] | CC50 Human Fibroblasts [7] | CC50 Human Fibroblasts ([7]; listed as omeprazole)
1 | COc1c(C)cnc(C[S+]([O-])c2nc3ccc(C)cc3[nH]2)c1C (centres unmarked) [BHO2, 2-[(4-methoxy-3,5-dimethylpyridin-2-yl)methylsulfinyl]-5(6)-methyl-1H-benzimidazole] | improved its solubility | 1.9 ± 0.2 | 64 | three-fold | irreversibly | 1.6 ± 0.1 | 130 | 38- to 61 fold | 8000 | 221.4 to 222.8 | 5000 |  |  |  |  |  |  |  |  | 
2 | Cc1ccc2nc([S+]([O-])Cc3nccc(OCC(F)(F)F)c3C)[nH]c2c1 (centres unmarked) [BHO3, 5(6)-Methyl-2-({[3-methyl-4-(2,2,2-trifluoroethoxy)pyridin-2-yl]methyl}sulfinyl]-1H-benzimidazole] |  | 2.15 ± 015 | 100 | two-fold | irreversibly | 1.2 ± 0.06 | 122 ± 1.7 | 38- to 61 fold | 4700 | 228.5 to 229.8 | 5500 | 1.8 ± 0.18 |  |  |  |  |  |  |  | 
3 | Cc1ccc2nc([S+]([O-])Cc3ccccn3)[nH]c2c1 (centres unmarked) [BHO1, 5(6)-methyl-2-[(pyridin-2-ylmethyl)sulfinyl]−1H-benzimidazole] |  |  |  |  |  |  |  |  |  | 121.3 to 122.9 |  |  | inactivated scarcely |  |  |  |  |  |  | 
4 | COc1ccc2[nH]c([S+]([O-])Cc3ncc(C)c(OC)c3C)nc2c1 (centres unmarked) [Omeprazole, omeprazole, reference compound] |  | 2.02 ± 0.02 | 225 |  |  | 0.78 ± 0.016 | 300 ± 10.2 |  | 14000 |  |  | 2.2 ± 0.2 | inactivated the GlTIM completely | irreversible | 0.6 | affects marginally | unaffected | 46 | No effect | did not show cytotoxic effect
